Test results taken from patent publication US12303473B1 (priority 2023, dated 2025).
Read-outs that look alike come from different tables or passages of the source.

Legend:
adult patients with TRD = conditions: for depression rating based on mean PHQ-9 depression scores: "severe" at baseline, HBr after 2 weeks; for side effect: anxiety / side effect: gastrointestinal upset / side effect: insomnia: in vivo
Description: In the regular course of Applicants' general outpatient psychiatry practice, Applicants see many patients who suffer from Major Depressive Disorder (MDD) and may not have responded to two or more oral antidepressant medications. Applicants routinely administer the brief and commonly used Patient Health Questionnaire-9 (PHQ-9) scale before starting a new treatment, two weeks after starting treatment to measure initial response, and periodically thereafter.
Once-daily, XL bupropion HCl received FDA approval for the treatment of MDD in 2003 and for Seasonal Affective Disorder (SAD) in 2006.
The following study protocol was approved by the WCG-IRB institutional ethics committee and conducted in accordance with principles set forth in the Helsinki Declaration. […] The PHQ-9 is a reliable and valid clinical and research tool that measures functionality and depression severity, whereby scores of 5, 10, 15, and 20 correspond to mild, moderate, moderately severe, and severe depression and a 5-point change is considered clinically meaningful. Statistical analysis was performed using a within-subject, 2-tailed t-test with a significance level of p<0.05.

[1] = test system: patients having Major Depressive Disorder who also suffer from Treatment Resistant Depression; experiment: Example 2: phase III double-blind active control Treatment Resistant Major Depressive Disorder study (MADRS), sequential HCl then HBr; format: in vivo, human; conditions: N=50
Protocol: A phase III double-blind study is conducted on a subset of patients having Major Depressive Disorder who also suffer from Treatment Resistant Depression. Exclusion criteria for this study are any patients suffering from seizures, known hypersensitivity to bupropion, eating disorders, schizophrenia or bipolar disorder. Inclusion criteria for this study are adult patients ages 18 through 64 who have taken two oral antidepressants of adequate dose and duration in the current episode of Major Depressive Disorder. The study includes a total of fifty patients (N=50). Initially, all patients are given a two-week washout from a previous oral antidepressant or are not currently taking an oral antidepressant. The patients are administered once daily bupropion HCl XL 150 mg, which is flexibly dosed to 300 mg by day 4 and 450 mg by day 11, to the extent required for treatment response and/or as tolerated. The treatment is continued for a total of six weeks. After six weeks, there is a five-day bupropion HCl XL washout. Next, the patients are administered once daily bupropion HBr XL 174 mg, which is flexibly dosed to 348 mg by day 4 and 522 mg by day 11, to the extent required for treatment response and/or as tolerated. This part of the study is continued for a total of six weeks. Measures are assessed based on weekly changes on the Montgomery Asberg Depression Rating Scale (MADRS) from baseline on bupropion HCl compared to bupropion HBr. Also, side effects leading to discontinuation on bupropion HCl compared to bupropion HBr are considered. The primary endpoint of the study is significant change in MADRS by week 6 on bupropion HBr compared to bupropion HCl. A secondary endpoint is statistically significant change in MADRS by week 2 on bupropion HBr compared to bupropion HCl.

[2] = test system: patients having Major Depressive Disorder who also suffer from Treatment Resistant Depression; experiment: Example 3: study similar to Example 2 with two arms of 25 patients; format: in vivo, human; conditions: 25 patients per arm
Protocol: A similar study to that of Example 2 is also conducted, except that the 50 patients are broken into two arms—one arm of 25 patients taking bupropion HCl XL and the other arm of 25 patients taking bupropion HBr XL.

[3] = APLENZIN 348 mg once-daily, 10-day dosing; cited from earlier work

Row | Compound | depression rating based on mean PHQ-9 depression scores (adult patients with TRD; 30 adult TRD patients) | mean PHQ-9 score on XL bupropion HCl (adult patients with TRD; 30 adult TRD patients, mean dose 300 mg/day (range 150-450 mg/day), mean duration 88.8 weeks, PHQ-9 range 0-27, baseline 20.9±4.3) | side effect: anxiety (adult patients with TRD; both, human) [patients] | side effect: gastrointestinal upset (adult patients with TRD; both, human) [patients] | side effect: insomnia (adult patients with TRD; both, human) [patients] | side effects leading to discontinuation compared to bupropion HCl [1] | efficacy in TRD (MADRS change) compared to bupropion HCl ([1]; 174-522 mg once daily, six weeks) | speed of effect compared to bupropion HCl ([1]; MADRS by week 2) | mean PHQ-9 score on XL bupropion HBr (adult patients with TRD; 30 adult TRD patients, after 2 weeks on mean dose 348 mg/day (range 174-522 mg/day) after direct switch from XL bupropion HCl, t=-8.63, p<0.00001 vs HCl) | change in PHQ-9 questions (1), (3), (4), (5) and (7) on XL bupropion HBr compared to XL bupropion HCl (adult patients with TRD; all patients in the study of Example 1, each question rated 0 to 3) | side effect: anxiety (adult patients with TRD) | side effect: gastrointestinal upset (adult patients with TRD) | patient preference over the combination of bupropion HCl plus dextromethorphan (adult patients with TRD; subgroup of five patients who had previously failed the combination, due to improved antidepressant efficacy) | results of two-arm study compared to bupropion HCl XL [2] | peak plasma concentration and area under the curve vs bupropion HCl extended-release 300 mg (bioequivalence) [3]
1 | CC(NC(C)(C)C)C(=O)c1cccc(Cl)c1.Cl (racemic) [XL bupropion HCl, (±)-1-(3-chlorophenyl)-2-[(1,1-dimethylethyl)amino]-1-propanone hydrochloride] | moderately severe (Scores of 15-19 indicate moderately severe depression) | 15.3±5.3 | 19 | 2 | 21 |  |  |  |  |  |  |  |  |  | 
2 | Br.CC(NC(C)(C)C)C(=O)c1cccc(Cl)c1 (centres unmarked) [XL bupropion HBr, bupropion hydrobromide] | mild (Scores of 5-9 indicate mild depression) |  |  |  | 3 | fewer side effects leading to discontinuation | more effective | works faster | 6.4±5.0 | improving by at least one point | resolved | resolved | All five patients in this subgroup preferred once-daily XL bupropion HBr | same as in Example 2 | equivalent
